Results taken from patent US20090170826A1, “Acid Addition Salt of Optically Active Dihydropyridine Derivative” (Daiichi Sankyo Company ,Limited, priority 2005, published 2009).

Columns and labels:
[1] = Absorbability test in dog; type: in vivo; settings: fasted male beagle, ranitidine pretreated, oral 10 mg/body in 0.5% methyl cellulose, plasma; for AUC(0-t): read-out: AUC0-24 h
Protocol: Ranitidine (2.5 mg/kg) was intramuscularly injected to the posterior region of thigh of a fasted male beagle (body weight: about 10 kg, n=6) to make the intragastric pH acidic 30 minutes before, immediately before and 30 minutes after administration of the test compound. The test compound was suspended in a 0.5% methyl cellulose solution at a dose of 10 mg/body and orally administered. About 3 ml of blood was collected from the median antebrachial vein using a heparin-treated glass syringe 0.5, 1, 2, 3, 4, 6, 8 and 24 hours after the administration. The collected blood was centrifuged to obtain plasma which was cryopreserved at −20° C. until measurement of the concentration of the test compound. One hundred μl of thawed plasma was mixed with 300 μl of an internal standard solution [a methanol solution of the d3-compound (Ia), 5 ng/ml] and centrifuged. The supernatant was filtered through a filter and the filtrate was analyzed by LC/MS/MS.
A calibration curve was prepared by the same operation as above using each 100 μl of a calibration curve standard solution [a methanol solution of the compound (Ia), 0.5-400 ng/ml] which had been adjusted to respective concentrations in place of 100 μl of dog plasma.
The LC/MS/MS analysis conditions are shown below.
The area under the concentration in plasma-time curve (AUC0-24h) and the maximum concentration in plasma (Cmax) as pharmacokinetic parameters indicative of drug absorbability were calculated from the results obtained according to the aforementioned method using the compounds of Example 1, Example 2 (2C) and Comparative Example 4 as test compounds.

[2] = Thermal stability test (residual rate of compound (I) by HPLC); type: physicochemical
Protocol: The test compound was placed in a glass bottle and allowed to stand under the following conditions (1) and (2).
(1): Closed state, 60° C.;
The measurement conditions in high performance liquid chromatography are as follows.
Column: L-column ODS [4.6 mm×250 mm, manufactured by Chemicals Evaluation and Research Institute, Japan]
Column temperature: 40° C.
Detection wavelength: 220 nm
The residual rate (%) was calculated by the following formula.
The residual rate (%)=[1−(sum of peak area percentages of impurities and decomposed products)]×100

[3] = Condition (1): closed state, 60° C., 1 month
[4] = Condition (1): closed state, 60° C., 1 week
[5] = Condition (1): closed state, 60° C., 3 months
[6] = Condition (1): closed state, 60° C., time 0
[7] = Condition (2): non-closed state, 40° C., humidity 75%, 1 month
[8] = Condition (2): non-closed state, 40° C., humidity 75%, 1 week
[9] = Condition (2): non-closed state, 40° C., humidity 75%, time 0

CC1=C(C(=O)OC(C)C)[C@@H](c2cccc([N+](=O)[O-])c2)C(C(=O)OC2CN(C(c3ccccc3)c3ccccc3)C2)=C(N)N1.Cl.Cl.O.O [Example 1, (R)-2-Amino-1,4-dihydro-6-methyl-4-(3-nitro-phenyl)-3,5-pyridinedicarboxylic Acid 3-(1-diphenylmethyl-azetidin-3-yl) Ester 5-isopropyl Ester Dihydrochloride dihydrate]
Cmax [1]: 168 ng/mL | AUC(0-t) [1]: 1660 ng·h/mL | Residual rate of Compound (I) (%) [2, 3]: 95.3% | Residual rate of Compound (I) (%) [2, 4]: 96.6% | Residual rate of Compound (I) (%) [2, 5]: 92.0% | Residual rate of Compound (I) (%) [2, 6]: 99.4% | Residual rate of Compound (I) (%) [2, 7]: 96.0% | Residual rate of Compound (I) (%) [2, 8]: 97.8% | Residual rate of Compound (I) (%) ([2]; Condition (2): non-closed state, 40° C., humidity 75%, 3 months): 94.1% | Residual rate of Compound (I) (%) [2, 9]: 99.4%

Br.Br.CC1=C(C(=O)OC(C)C)[C@@H](c2cccc([N+](=O)[O-])c2)C(C(=O)OC2CN(C(c3ccccc3)c3ccccc3)C2)=C(N)N1.O.O [Example 2, (R)-2-Amino-1,4-dihydro-6-methyl-4-(3-nitro-phenyl)-3,5-pyridinedicarboxylic Acid 3-(1-diphenylmethyl-azetidin-3-yl) Ester 5-isopropyl Ester Dihydrobromide dihydrate]
Cmax [1]: 230 ng/mL | AUC(0-t) [1]: 1930 ng·h/mL | Residual rate of Compound (I) (%) [2, 3]: 94.2% | Residual rate of Compound (I) (%) ([2]; Condition (1): closed state, 60° C., 1 month, listed as Example 2A, Dihydrobromide dihydrate): 99.7% | Residual rate of Compound (I) (%) ([2]; Condition (1): closed state, 60° C., 1 week, listed as Example 2A, Dihydrobromide dihydrate): 99.8% | Residual rate of Compound (I) (%) ([2]; Condition (1): closed state, 60° C., 1 week, listed as Example 2C, Dihydrobromide dihydrate): 95.0% | Residual rate of Compound (I) (%) ([2]; Condition (1): closed state, 60° C., 3 months, listed as Example 2A, Dihydrobromide dihydrate): 99.7% | Residual rate of Compound (I) (%) ([2]; Condition (1): closed state, 60° C., 3 months, listed as Example 2C, Dihydrobromide dihydrate): 94.5% | Residual rate of Compound (I) (%) [2, 6]: 99.8% | Residual rate of Compound (I) (%) ([2]; Condition (1): closed state, 60° C., time 0, listed as Example 2C, Dihydrobromide dihydrate): 99.1% | Residual rate of Compound (I) (%) [2, 7]: 92.1% | Residual rate of Compound (I) (%) ([2]; Condition (2): non-closed state, 40° C., humidity 75%, 1 month, listed as Example 2A, Dihydrobromide dihydrate): 99.6% | Residual rate of Compound (I) (%) [2, 8]: 95.5% | Residual rate of Compound (I) (%) ([2]; Condition (2): non-closed state, 40° C., humidity 75%, 1 week, listed as Example 2A, Dihydrobromide dihydrate): 99.7% | Residual rate of Compound (I) (%) ([2]; Condition (2): non-closed state, 40° C., humidity 75%, 3 months, listed as Example 2A, Dihydrobromide dihydrate): 99.4% | Residual rate of Compound (I) (%) ([2]; Condition (2): non-closed state, 40° C., humidity 75%, 3 months, listed as Example 2C, Dihydrobromide dihydrate): 90.6% | Residual rate of Compound (I) (%) [2, 9]: 99.8% | Residual rate of Compound (I) (%) ([2]; Condition (2): non-closed state, 40° C., humidity 75%, time 0, listed as Example 2C, Dihydrobromide dihydrate): 99.1%

CC1=C(C(=O)OC(C)C)[C@@H](c2cccc([N+](=O)[O-])c2)C(C(=O)OC2CN(C(c3ccccc3)c3ccccc3)C2)=C(N)N1.CS(=O)(=O)O.CS(=O)(=O)O [Comparative Example 3, (R)-2-Amino-1,4-dihydro-6-methyl-4-(3-nitrophenyl)-3,5-pyridinedicarboxylic Acid 3-(1-diphenylmethylazetidin-3-yl) Ester 5-isopropyl Ester Dimethanesulfonate, reference compound]
Residual rate of Compound (I) (%) [2, 3]: 90.0% | Residual rate of Compound (I) (%) [2, 4]: 93.2% | Residual rate of Compound (I) (%) [2, 5]: 84.1% | Residual rate of Compound (I) (%) [2, 6]: 99.3% | Residual rate of Compound (I) (%) [2, 7]: 0.0% | Residual rate of Compound (I) (%) [2, 8]: 0.1% | Residual rate of Compound (I) (%) [2, 9]: 99.3%

(R)-2-Amino-1,4-dihydro-6-methyl-4-(3-nitrophenyl)-3,5-pyridinedicarboxylic acid 3-(1-diphenylmethylazetidin-3-yl) ester 5-isopropyl Ester Disulfate Dihydrate [Comparative Example 1, reference compound]
Residual rate of Compound (I) (%) [2, 3]: 0.4% | Residual rate of Compound (I) (%) [2, 4]: 68.0% | Residual rate of Compound (I) (%) [2, 6]: 99.3% | Residual rate of Compound (I) (%) [2, 7]: 84.4% | Residual rate of Compound (I) (%) [2, 8]: 96.8% | Residual rate of Compound (I) (%) [2, 9]: 99.3%

CC1=C(C(=O)OC(C)C)[C@@H](c2cccc([N+](=O)[O-])c2)C(C(=O)OC2CN(C(c3ccccc3)c3ccccc3)C2)=C(N)N1 [Comparative Example 4, (R)-2-Amino-1,4-dihydro-6-methyl-4-(3-nitrophenyl)-3,5-pyridinedicarboxylic Acid 3-(1-diphenylmethylazetidin-3-yl) Ester 5-isopropyl Ester, reference compound]
Cmax [1]: 161 ng/mL | AUC(0-t) [1]: 1500 ng·h/mL

CC1=C(C(=O)OC(C)C)[C@@H](c2cccc([N+](=O)[O-])c2)C(C(=O)OC2CN(C(c3ccccc3)c3ccccc3)C2)=C(N)N1.O=S(=O)(O)O [Comparative Example 2, (R)-2-Amino-1,4-dihydro-6-methyl-4-(3-nitrophenyl)-3,5-pyridinedicarboxylic Acid 3-(1-diphenylmethylazetidin-3-yl) Ester 5-isopropyl Ester Monosulfate, reference compound]
Residual rate of Compound (I) (%) [2, 3]: 24.3% | Residual rate of Compound (I) (%) [2, 4]: 25.0% | Residual rate of Compound (I) (%) [2, 6]: 93.1% | Residual rate of Compound (I) (%) [2, 8]: 8.9% | Residual rate of Compound (I) (%) [2, 9]: 93.1%
